Data: patent publication US20090105266A1, “Organic compounds” (priority 2007, published 2009)

Target: T1, mGluR5 (Homo sapiens, UniProt P41594)
T1 construct: expressed in transfected cells
Assay: inhibition of the glutamate (agonist) induced elevation of the inositol phosphate turnover
Assay type: cell-based
Details: inhibition of glutamate induced elevation of inositol phosphate turnover at 0.1 μM
Source text: This can be determined in vitro for example at recombinant human metabotropic glutamate receptors, especially PLC-coupled subtypes thereof such as mGluR5, using different procedures like, for example, measurement of the inhibition of the agonist induced elevation of intracellular Ca^2+ concentration in accordance with L. P. Daggett et al., Neuropharm. Vol. 34, pages 871-886 (1995), P. J. Flor et al., J. Neurochem. Vol. 67, pages 58-63 (1996) or by determination to what extent the agonist induced elevation of the inositol phosphate turnover is inhibited as described by T. Knoepfel et al., Eur. J. Pharmacol. Vol. 288, pages 389-392 (1994), L. P. Daggett et al., Neuropharm. Vol. 67, pages 58-63 (1996) and references cited therein. Isolation and expression of human mGluR subtypes are described in U.S. Pat. No. 5,521,297. Selected agents of the invention show IC50 values for the inhibition of the agonist (e.g. glutamate or quisqualate) induced elevation of intracellular Ca2+ concentration or the agonist (e.g. glutamate or quisqualate) induced inositol phosphate turnover, measured in recombinant cells expressing hmGluR^5a of about 0.1 nM to about 50 μM.
Activity of compounds of the present invention was examined by determination to what extent the agonist induced elevation of the inositol phosphate turnover is inhibited as described by T. Knoepfel et al., Eur. J. Pharmacol. Vol. 288, pages 389-392 (1994), L. P. Daggett et al., Neuropharm. Vol. 67, pages 58-63 (1996) and references cited therein.
The table below represents percentages of inhibition of the glutamate induced elevation of the inositol phosphate turnover at a concentration of 0.1 μM.

T1 sequence (P41594 21-1180 isoform P41594-2 limits assumed): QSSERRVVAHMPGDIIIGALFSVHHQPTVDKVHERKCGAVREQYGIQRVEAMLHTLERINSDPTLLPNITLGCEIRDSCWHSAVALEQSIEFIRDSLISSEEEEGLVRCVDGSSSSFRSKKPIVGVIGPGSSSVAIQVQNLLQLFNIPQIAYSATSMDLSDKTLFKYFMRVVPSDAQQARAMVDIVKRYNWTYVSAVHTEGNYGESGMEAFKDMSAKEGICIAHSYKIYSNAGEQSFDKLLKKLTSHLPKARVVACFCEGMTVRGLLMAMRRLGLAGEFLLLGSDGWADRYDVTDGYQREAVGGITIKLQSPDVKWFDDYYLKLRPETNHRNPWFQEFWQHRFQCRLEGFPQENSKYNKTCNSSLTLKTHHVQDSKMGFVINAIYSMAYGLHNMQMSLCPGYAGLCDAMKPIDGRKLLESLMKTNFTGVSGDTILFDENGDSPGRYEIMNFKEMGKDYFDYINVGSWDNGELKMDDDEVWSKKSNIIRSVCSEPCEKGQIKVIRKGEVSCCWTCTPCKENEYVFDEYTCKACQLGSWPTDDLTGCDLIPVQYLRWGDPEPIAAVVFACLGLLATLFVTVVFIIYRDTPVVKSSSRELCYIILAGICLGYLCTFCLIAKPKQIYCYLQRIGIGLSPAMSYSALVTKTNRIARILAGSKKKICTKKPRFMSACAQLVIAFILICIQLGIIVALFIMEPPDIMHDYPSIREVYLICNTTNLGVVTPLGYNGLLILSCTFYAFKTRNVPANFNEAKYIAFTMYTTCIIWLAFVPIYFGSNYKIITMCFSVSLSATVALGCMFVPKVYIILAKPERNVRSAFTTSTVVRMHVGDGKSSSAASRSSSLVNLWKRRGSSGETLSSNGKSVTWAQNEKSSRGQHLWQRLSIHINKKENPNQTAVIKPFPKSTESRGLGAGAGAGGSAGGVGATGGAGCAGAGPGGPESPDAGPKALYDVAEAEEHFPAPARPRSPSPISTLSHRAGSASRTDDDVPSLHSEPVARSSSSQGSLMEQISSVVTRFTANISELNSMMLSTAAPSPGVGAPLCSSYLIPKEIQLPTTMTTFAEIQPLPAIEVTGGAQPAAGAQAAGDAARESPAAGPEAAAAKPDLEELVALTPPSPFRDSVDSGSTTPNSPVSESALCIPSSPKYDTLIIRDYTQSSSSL

| SMILES | inhibition at 0.1 µM [%] | mGluR5-activity in [%] inhibition at 0.1 μM [%] |
| --- | --- | --- |
| CCCn1c(-c2cnc(Nc3cnccn3)c(Cl)c2)nc2cccc(Cl)c21 [Example 72, [3-Chloro-5-(7-chloro-1-propyl-1H-benzoimidazol-2-yl)-pyridin-2-yl]-pyrazin-2-yl-amine] | 96 | – |
| CCCn1c(-c2cnc(Nc3ccc(C)nc3)nc2)nc2cccc(Cl)c21 [Example 92, [5-(7-Chloro-1-propyl-1H-benzoimidazol-2-yl)-pyrimidin-2-yl]-(6-methyl-pyridin-3-yl)-amine] | 99 | – |
| CCCn1c(-c2cnc(Nc3ccc(F)c(F)c3)c(Cl)c2)nc2cccc(Cl)c21 [Example 57, [3-Chloro-5-(7-chloro-1-propyl-1H-benzoimidazol-2-yl)-pyridin-2-yl]-(3,4-difluoro-phenyl)-amine] | 93 | – |
| CCCn1c(-c2cnc(Nc3ccc(C)nc3)c(Cl)c2)nc2cccc(Cl)c21 [Example 48, [3-Chloro-5-(7-chloro-1-propyl-1H-benzoimidazol-2-yl)-pyridin-2-yl]-(6-methyl-pyridin-3-yl)-amine] | 101 | – |
| CCCn1c(-c2ccc(Nc3ccc(OC)cc3)nc2)nc2cccc(Cl)c21 [Example 99, [5-(7-Chloro-1-propyl-1H-benzoimidazol-2-yl)-pyridin-2-yl]-(4-methoxy-phenyl)-amine] | 99 | – |
| CCCn1c(-c2cnc(Nc3ccc(N(C)C)nc3)c(Cl)c2)nc2ccc(F)cc21 [Example 68, N-5-[3-Chloro-5-(6-fluoro-1-propyl-1H-benzoimidazol-2-yl)-pyridin-2-yl]-N-2,N-2-dimethyl-pyridine-2,5-diamine] | – | 43 |
| CCCn1c(-c2ccc(Nc3ccc(OC)cc3)cc2)nc2cccc(Cl)c21 [Example 82, [4-(7-Chloro-1-propyl-1H-benzoimidazol-2-yl)-phenyl]-(4-methoxy-phenyl)-amine] | 88 | – |
| CCCn1c(-c2cnc(Nc3ccc(C#N)nc3)c(Cl)c2)nc2cccc(Cl)c21 [Example 75b, 5-[3-Chloro-5-(7-chloro-1-propyl-1H-benzoimidazol-2-yl)-pyridin-2-ylamino]-pyridine-2-carbonitrile] | 99 | – |
| COc1ccc(Nc2ccc(-c3nc4cccc(Cl)c4n3CC(C)C)cn2)cc1 [Example 110, [5-(7-Chloro-1-isobutyl-1H-benzoimidazol-2-yl)-pyridin-2-yl]-(4-methoxy-phenyl)-amine] | 95 | – |
| CCCn1c(-c2cnc(Nc3ccc(OC)cc3)c(Cl)c2)nc2ccccc21 [Example 114, [3-Chloro-5-(1-propyl-1H-benzoimidazol-2-yl)-pyridin-2-yl]-(4-methoxy-phenyl)-amine] | 99 | – |
| CCCn1c(-c2cnc(Nc3c(F)cccc3F)c(Cl)c2)nc2cccc(Cl)c21 [Example 67, [3-Chloro-5-(7-chloro-1-propyl-1H-benzoimidazol-2-yl)-pyridin-2-yl]-(2,6-difluoro-phenyl)-amine] | 42 | – |
| CCCn1c(-c2cnc(Nc3ccc(C)nc3)c(Cl)c2)nc2c(Cl)cccc21 [Example 47, [3-Chloro-5-(4-chloro-1-propyl-1H-benzoimidazol-2-yl)-pyridin-2-yl]-(6-methyl-pyridin-3-yl)-amine] | 100 | – |
| CCCn1c(-c2cnc(Nc3ccc4nccnc4c3)c(Cl)c2)nc2cccc(Cl)c21 [Example 61, [3-Chloro-5-(7-chloro-1-propyl-1H-benzoimidazol-2-yl)-pyridin-2-yl]-quinoxalin-6-yl-amine] | 96 | – |
| CCCn1c(-c2cnc(Nc3ccc(C)nc3)c(Cl)c2)nc2cc(Cl)ccc21 [Example 45, [3-Chloro-5-(5-chloro-1-propyl-1H-benzoimidazol-2-yl)-pyridin-2-yl]-(6-methyl-pyridin-3-yl)-amine] | 91 | – |
| CCCn1c(-c2ccc(Nc3ccc(Cl)cc3)nn2)nc2cccc(Cl)c21 [Example 87, (4-Chloro-phenyl)-[6-(7-chloro-1-propyl-1H-benzoimidazol-2-yl)-pyridazin-3-yl]-amine] | 47 | – |
| COc1ccc(Nc2ncc(-c3nc4cccc(Cl)c4n3CC(C)C)cc2Cl)cc1 [Example 114b, [3-chloro-5-(7-chloro-1-isobutyl-1H-benzoimidazol-2-yl)-pyridin-2-yl]-(4-methoxy-phenyl)-amine] | 100 | – |
| CCCn1c(-c2cnc(Nc3ccc(C)nc3)c(Cl)c2)nc2c(C)cccc21 [Example 25, [3-Chloro-5-(4-methyl-1-propyl-1H-benzoimidazol-2-yl)-pyridin-2-yl]-(6-methyl-pyridin-3-yl)-amine] | 97 | – |
| CCCn1c(-c2cnc(Nc3ccc(CO)nc3)c(Cl)c2)nc2cccc(Cl)c21 [Example 75f, {5-[3-Chloro-5-(7-chloro-1-propyl-1H-benzoimidazol-2-yl)-pyridin-2-ylamino]-pyridin-2-yl}-methanol] | 92 | – |
| CCCn1c(-c2ccc(Nc3ccc(C)nc3)cc2)nc2cccc(Cl)c21 [Example 78, [4-(7-Chloro-1-propyl-1H-benzoimidazol-2-yl)-phenyl]-(6-methyl-pyridin-3-yl)-amine] | 99 | – |
| CCCn1c(-c2cnc(Nc3cc(C)no3)c(Cl)c2)nc2cccc(Cl)c21 [Example 73, [3-Chloro-5-(7-chloro-1-propyl-1H-benzoimidazol-2-yl)-pyridin-2-yl]-(3-methyl-isoxazol-5-yl)-amine] | 98 | – |
| CCCn1c(-c2ccc(Nc3ccc(C)nc3)nn2)nc2cccc(Cl)c21 [Example 88, [6-(7-Chloro-1-propyl-1H-benzoimidazol-2-yl)-pyridazin-3-yl]-(6-methyl-pyridin-3-yl)-amine] | 97 | – |

Second part, led by results:

| inhibition at 0.1 µM [%] | SMILES | mGluR5-activity in [%] inhibition at 0.1 μM [%] |
| --- | --- | --- |
| 90 | CCCn1c(-c2ccc(Nc3ccc(C)cc3)cc2)nc2cccc(Cl)c21 [Example 80, [4-(7-Chloro-1-propyl-1H-benzoimidazol-2-yl)-phenyl]-p-tolyl-amine] | – |
| 95 | CCCn1c(-c2ccc(Nc3ccc(Cl)cc3)nc2)nc2cccc(Cl)c21 [Example 101, (4-Chloro-phenyl)-[5-(7-chloro-1-propyl-1H-benzoimidazol-2-yl)-pyridin-2-yl]-amine] | – |
| 93 | CCCn1c(-c2cnc(Nc3ccc(OC)cc3)c(Cl)c2)nc2ccc(F)cc21 [Example 66, [3-Chloro-5-(6-fluoro-1-propyl-1H-benzoimidazol-2-yl)-pyridin-2-yl]-(4-methoxy-phenyl)-amine] | – |
| 70 | CCCn1c(-c2ccc(Nc3ccc(C)cc3)nc2)nc2ccc(F)cc21 [Example 106, [5-(6-Fluoro-1-propyl-1H-benzoimidazol-2-yl)-pyridin-2-yl]-p-tolyl-amine] | – |
| 65 | CCCn1c(-c2ccc(Nc3ccc(C)nc3)cc2)nc2ccc(F)cc21 [Example 79, [4-(6-Fluoro-1-propyl-1H-benzoimidazol-2-yl)-phenyl]-(6-methyl-pyridin-3-yl)-amine] | – |
| 98 | Cc1ccc(Nc2ccc(-c3nc4cccc(Cl)c4n3CC(C)C)cn2)cc1 [Example 108, [5-(7-Chloro-1-isobutyl-1H-benzoimidazol-2-yl)-pyridin-2-yl]-p-tolyl-amine] | – |
| 100 | Cc1ccc(Nc2ccc(-c3nc4cccc(Cl)c4n3CC(C)C)cc2Cl)cn1 [Example 116, [2-Chloro-4-(7-Chloro-1-isobutyl-1H-benzoimidazol-2-yl)-phenyl]-(6-methyl-pyridin-3-yl)-amine] | – |
| 100 | CCCn1c(-c2cnc(Nc3ccc(NC(C)=O)nc3)c(Cl)c2)nc2cccc(Cl)c21 [Example 75c, N-{5-[3-Chloro-5-(7-chloro-1-propyl-1H-benzoimidazol-2-yl)-pyridin-2-ylamino]-pyridin-2-yl}-acetamide] | – |
| 100 | CCCn1c(-c2ccc(Nc3ccc(C)nc3)nc2)nc2cccc(Cl)c21 [Example 100, [5-(7-Chloro-1-propyl-1H-benzoimidazol-2-yl)-pyridin-2-yl]-(6-methyl-pyridin-3-yl)-amine] | – |
| 20 | CCCn1c(-c2cnc(Nc3ccc(NC(C)=O)nc3)c(Cl)c2)nc2ccc(F)cc21 [Example 71, N-{5-[3-Chloro-5-(6-fluoro-1-propyl-1H-benzoimidazol-2-yl)-pyridin-2-ylamino]-pyridin-2-yl}-acetamide] | – |
| 95 | CCCn1c(-c2cnc(Nc3ccccc3F)c(Cl)c2)nc2cccc(Cl)c21 [Example 53, [3-Chloro-5-(7-chloro-1-propyl-1H-benzoimidazol-2-yl)-pyridin-2-yl]-(2-fluoro-phenyl)-amine] | – |
| 82 | CCCn1c(-c2ccc(Nc3ccc(OC)cc3)nc2)nc2cccc(F)c21 [Example 114d, [5-(7-fluoro-1-propyl-1H-benzoimidazol-2-yl)-pyridin-2-yl]-(4-methoxy-phenyl)-amine] | – |
| 99 | CCCn1c(-c2cnc(Nc3ccc(OC)nc3)c(Cl)c2)nc2cccc(Cl)c21 [Example 74, [3-Chloro-5-(7-chloro-1-propyl-1H-benzoimidazol-2-yl)-pyridin-2-yl]-(6-methoxy-pyridin-3-yl)-amine] | – |
